Here are results for 14 molecules from US5374634A, “Pyridine derivatives” (Kyowa Hakko Kogyo Co., Ltd., priority 1992, dated 1994).

Where only a bound is given, the exact number is not on record here.

Broadly, the IC50 is the midpoint of a concentration-inhibition curve.

One series deals with dd-strain male mice. Description: Acute toxicity test (oral, minimum lethal dose). Format: in vivo. Conditions: mortality observed for 7 days. As to the method:
A test compound was orally administered to three dd-strain male mice weighing 20±1 g. The minimum lethal dose (MLD) was determined by observing the mortality for 7 days after the administration.

Series [1] relates to PTH-induced calcium release (i.e. bone resorption) from bones (calvaria). Kind of series: Bone resorption-inhibiting effect: inhibition of PTH-induced calcium release from cultured calvaria. Format: cell-based, dd mice (5- to 6-day-old). Conditions: mouse half calvaria culture; PTH 1×10^-8 M; calcium in medium at 96 hours; test compound 3×10^-6, 1×10^-5, 3×10^-5 M. As to the method: The bone resorption-inhibiting effect of the compounds of the present invention is illustrated by the following experiment.
Calvaria were aseptically removed from 5- to 6-day-old dd mice, washed with Dulbecco's modified phosphate-buffered saline not containing calcium and magnesium (product of Gibco Oriental Co.), and cut along the sagittal suture into left and right halves. Each half calvarium was cultured in 1.5 ml medium consisting of Dulbecco's modified Eagle medium (high glucose) (product of Gibco Oriental Co.) supplemented with 15% heat-inactivated (at 56° C. for 20 minutes) horse serum, 2.5% heat-inactivated fetal bovine serum, plus 1% antibiotic-antimycotic liquid. The test compound was dissolved in dimethylsulfoxide, and a 10 μl portion of the solution was added to the culture to the final concentrations of 3×10^-6 M, 1×10^-5 M and 3×10^-5 M. PTH (parathyroid hormone) was dissolved in 0.15M sodium chloride (pH 3), and a 3 μl-portion of the resulting solution was added to the culture to the final concentration of 1×10^-8 M. Cultures were incubated at 37° C. in a water-saturated atmosphere consisting of 5% CO2 and 95% air. Typically, cultures were maintained for 96 hours and the media were changed at 48 hours. The test compound and PTH which had been processed in the same manner as described above were added thereto. In order to investigate the action of the test compound on PTH-induced calcium release (i.e. bone resorption) from bones, there were prepared 3 groups: control group, PTH treated group (1×10^-8 M) and test compound- and PTH-treated group (3×10^-6 M, 1×10^-5 M, 3×10^-5 M). Bone resorption was assessed by measuring the accumulation of calcium in the culture media collected at 96 hours of culturing. The total calcium concentrations were determined using Calcium C-Test Wako (product of Wako). The inhibition rate was calculated therefrom according to the equation given below and 50% inhibitory concentration (IC50) was determined. [formula] CO : Total calcium concentration in the culture free from both PTH and test compound
Cp : Total calcium concentration in the culture treated with PTH only
CD : Total calcium concentration in the culture treated with both PTH and test compound.

Regarding `COc1ccc(C(c2ccc(OC)cc2)c2cnccc2C(=O)N2CCN(c3ccccc3Cl)CC2)cc1` [Compound 6, 1-(2-Chlorophenyl)-4-{[3-bis(4-methoxyphenyl)methyl]-isonicotinyl}piperazine], in the series on dd-strain male mice, the “MLD (minimum lethal dose)” value is above 300 mg/kg. As for `O=C(NC12CC3CC(CC1C3)C2)c1ccncc1C(c1ccc(O)cc1)c1ccc(O)cc1` [Compound 9, N-(Tricyclo[3.3.1.0^3,7]non-3-yl)-3-[bis(4-hydroxyphenyl)methyl]-4-pyridinecarboxamide], the IC50 in series [1] came out at 18.6 µM. `O=C(c1ccncc1C(c1ccc(O)cc1)c1ccc(O)cc1)N1CCCCC1` [Compound 10]: the IC50 in series [1] was determined as 19.2 µM.

Turning to `O=C(NC12CC3CC(CC(C3)C1)C2)c1ccncc1C(c1ccc(O)cc1)c1ccc(O)cc1` [Compound 11, N-(Tricyclo[3.3.1.1^3,7]dec-1-yl)-3-[bis(4-hydroxyphenyl)methyl]-4-pyridinecarboxamide], the IC50 in series [1] was determined as 20.3 µM. For the molecule `O=C(NC1CCCCCCC1)c1ccncc1C(c1ccc(O)cc1)c1ccc(O)cc1` [Compound 12, N-Cyclooctyl-3-[bis(4-hydroxyphenyl)methyl]-4-pyridinecarboxamide], the half-maximal inhibitory concentration (IC50) in series [1] amounted to 11.6 µM. In the case of `O=C(c1ccncc1C(c1ccc(O)cc1)c1ccc(O)cc1)N1CCN(c2ccccc2Cl)CC1` [Compound 13, 1-(2-Chlorophenyl)-4-{[3--bis(4,hydroxyphenyl)methyl]isonicotinyl}piperazine], the IC50 in series [1] was found to be 6 µM. The “MLD (minimum lethal dose)” value in the series with dd-strain male mice is recorded as above 1000 mg/kg. As to `O=C(Nc1ccc(O)cc1)c1ccncc1C(c1ccc(O)cc1)c1ccc(O)cc1` [Compound 15, N-(4-Hydroxyphenyl)-3-[bis(4-hydroxyphenyl)methyl]-4-pyridinecarboxamide], in series [1], the IC50 is 75.6 µM.

Turning to `O=C(c1ccncc1C(c1ccc(O)cc1)c1ccc(O)cc1)N1CCN(c2cccc(C(F)(F)F)c2)CC1` [Compound 16, 1-(3-Trifluoromethylphenyl)-4-{[3-bis(4-hydroxyphenyl)methyl]isonicotinyl}piperazine], in series [1], the IC50 came to 7.1 µM. Turning to `O=C(c1ccncc1C(c1ccc(O)cc1)c1ccc(O)cc1)N1CCN(c2ccc(Cl)cc2)CC1` [Compound 17, 1-(4-Chlorophenyl)-4-{[3-bis(4-hydroxyphenyl)methyl]isonicotinyl}piperazine], the IC50 in series [1] was found to be 24.9 µM. In the case of `O=C(c1ccncc1C(c1ccc(O)cc1)c1ccc(O)cc1)N1CCN(c2cccc(Cl)c2)CC1` [Compound 18, 1-(3-Chlorophenyl)-4-{[3-bis(4-hydroxyphenyl)methyl]isonicotinyl}piperazine], in series [1], the IC50 came to 14 µM. Further, the “MLD (minimum lethal dose)” value with dd-strain male mice was above 300 mg/kg.

`O=C(c1ccncc1C(c1ccc(O)cc1)c1ccc(O)cc1)N1CCN(c2ccccc2O)CC1` [Compound 19, 1-(2-Hydroxyphenyl)-4-{[3-bis(4-hydroxyphenyl)methyl]isonicotinyl}piperazine]: the IC50 in series [1] was found to be 8.9 µM. On to `O=C(c1ccncc1C(c1ccc(O)cc1)c1ccc(O)cc1)N1CCN(c2ccccc2)CC1` [Compound 20, 1-Phenyl-4-{[3-bis(4-hydroxyphenyl)methyl]isonicotinyl}piperazine], for which the IC50 in series [1] came out at 75.6 µM. Consider `Cc1cccc(N2CCN(C(=O)c3ccncc3C(c3ccc(O)cc3)c3ccc(O)cc3)CC2)c1` [Compound 21, 1-(3-Methylphenyl)-4-{[3-bis(4-hydroxyphenyl)methyl]isonicotinyl}piperazine], for which, in series [1], the IC50 is 8.5 µM. Take `O=C(c1ccncc1C(c1ccc(O)cc1)c1ccc(O)cc1)N1CCN(c2ncccn2)CC1` [Compound 22, 1-(2-Pyrimidyl)-4-{[3-bis(4-hydroxyphenyl)methyl]isonicotinyl}piperazine]: the IC50 in series [1] is 19.6 µM.
